Reference: ChEMBL document CHEMBL4304802, “Novel promising 4-anilinoquinazoline-based derivatives as multi-target RTKs inhibitors: Design, molecular docking, synthesis, and antitumor activities in vitro and vivo” (Bioorg Med Chem, 2019)
pIC50: −log10 of the molar value.

Tests used:
HepG2 = test: Antiproliferative activity against human HepG2 cells incubated for 72 hrs by MTT assay; type: functional, cell-based; details: HepG2, 72 h
SH-SY5Y = test: Antiproliferative activity against human SH-SY5Y cells incubated for 72 hrs by MTT assay; type: functional, cell-based
A549 = test: Antiproliferative activity against human A549 cells incubated for 72 hrs by MTT assay; type: functional, cell-based; details: A549, 72 h
MCF7 = test: Antiproliferative activity against human MCF7 cells incubated for 72 hrs by MTT assay; type: functional, cell-based; details: MCF7, 72 h
DU-145 = test: Antiproliferative activity against human DU145 cells incubated for 72 hrs by MTT assay; type: functional, cell-based; details: DU-145, 72 h
[1] = Cytotoxicity against human CCC-HPF1 cells assessed as decrease in cell viability incubated for 72 hrs by MTT assay; type: cell-based; details: CCC-HPF-1, 72 h

Structure (SMILES) | pIC50 (HepG2) | pIC50 (SH-SY5Y) | pIC50 (A549) | pIC50 (MCF7) | pIC50 (DU-145) | pIC50 [1]
c1ccc(COc2ccccc2Nc2ncnc3cc4c(cc23)OCCOCCOCCOCCO4)cc1 | 4.53 | 4.62 | 4.31 | < 4.00 | < 4.00 | 
FC(F)(F)c1ccc(COc2cccc(Nc3ncnc4cc5c(cc34)OCCOCCOCCO5)c2)cc1 | 4.47 | 4.70 | 4.60 | 4.75 | 5.56 | 4.48
FC(F)(F)c1ccc(COc2ccccc2Nc2ncnc3cc4c(cc23)OCCOCCOCCO4)cc1 | < 4.00 | < 4.00 | < 4.00 | < 4.00 | < 4.00 | 
c1ccc(COc2ccc(Nc3ncnc4cc5c(cc34)OCCOCCO5)cc2)cc1 | 4.26 | 4.41 | 4.36 | < 4.00 | < 4.00 | 
c1ccc(COc2ccc(Nc3ncnc4cc5c(cc34)OCCOCCOCCOCCO5)cc2)cc1 | 4.93 | 5.28 | 4.53 | 4.92 | 5.06 | 4.47
FC(F)(F)c1ccc(COc2ccc(Nc3ncnc4cc5c(cc34)OCCOCCO5)cc2)cc1 | < 4.00 | 4.52 | < 4.00 | < 4.00 | < 4.00 | 
FC(F)(F)c1ccc(COc2cccc(Nc3ncnc4cc5c(cc34)OCCOCCO5)c2)cc1 | < 4.00 | 4.72 | < 4.00 | < 4.00 | < 4.00 | 
FC(F)(F)c1ccc(COc2ccc(Nc3ncnc4cc5c(cc34)OCCOCCOCCO5)cc2)cc1 | < 4.00 | < 4.00 | 4.51 | 4.55 | < 4.00 | 

The next lines start with results.

pIC50 (HepG2) | pIC50 (SH-SY5Y) | pIC50 (A549) | pIC50 (MCF7) | pIC50 (DU-145) | Structure (SMILES) | pIC50 [1]
< 4.00 | 4.26 | 5.06 | 4.40 | < 4.00 | O=[N+]([O-])c1ccc(COc2ccc(Nc3ncnc4cc5c(cc34)OCCOCCO5)cc2)cc1 | 4.33
4.30 | < 4.00 | 4.55 | < 4.00 | 4.07 | O=[N+]([O-])c1ccc(COc2ccccc2Nc2ncnc3cc4c(cc23)OCCOCCO4)cc1 | 
< 4.00 | < 4.00 | < 4.00 | < 4.00 | < 4.00 | FC(F)(F)c1ccc(COc2ccccc2Nc2ncnc3cc4c(cc23)OCCOCCO4)cc1 | 
5.01 | 5.07 | 4.70 | 5.19 | 4.86 | O=[N+]([O-])c1ccc(COc2cccc(Nc3ncnc4cc5c(cc34)OCCOCCOCCOCCO5)c2)cc1 | < 4.00
